The record followed here is patent US20240317708A1, “INHIBITORS OF TRANSGLUTAMINASES” (ZEDIRA GMBH, priority 2021, published 2024).

SMILES strings stand for the structures.

Series [1] can be described thus: Caco-2 permeability assay (CacoReady kit). In kind it is in vitro ADME. The conditions noted are these: human. The method, boiled down:
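Apparent permeability coefficients (Papp) were measured across Caco-2 cell barriers using a ready-to-use kit run per the supplier's protocol. Values serve as a predictor of oral/intestinal bioavailability.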
In general terms: Caco-2 monolayers are a common model of the intestinal barrier.

Series [2] in a line: Log D shake flask method (octanol / PBS pH 7.4, HPLC). In kind it is physicochemical. The conditions noted are these: octanol/phosphate-buffered saline (PBS); octanol / PBS pH 7.4, shake flask. How it is done: In order to classify the inventive compounds according to their lipophilicity, Log D values (distribution coefficient) were determined by means of the well-established shake flask method, measuring the partition of a compound between an octanol and phosphate-buffered saline (PBS, pH 7.4) by HPLC.

Series [3] concerns the target T1, recombinant human transglutaminase 2 (Homo sapiens, UniProt P21980).
T1 construct: purchased Zedira T022
T1 sequence (P21980 1-687): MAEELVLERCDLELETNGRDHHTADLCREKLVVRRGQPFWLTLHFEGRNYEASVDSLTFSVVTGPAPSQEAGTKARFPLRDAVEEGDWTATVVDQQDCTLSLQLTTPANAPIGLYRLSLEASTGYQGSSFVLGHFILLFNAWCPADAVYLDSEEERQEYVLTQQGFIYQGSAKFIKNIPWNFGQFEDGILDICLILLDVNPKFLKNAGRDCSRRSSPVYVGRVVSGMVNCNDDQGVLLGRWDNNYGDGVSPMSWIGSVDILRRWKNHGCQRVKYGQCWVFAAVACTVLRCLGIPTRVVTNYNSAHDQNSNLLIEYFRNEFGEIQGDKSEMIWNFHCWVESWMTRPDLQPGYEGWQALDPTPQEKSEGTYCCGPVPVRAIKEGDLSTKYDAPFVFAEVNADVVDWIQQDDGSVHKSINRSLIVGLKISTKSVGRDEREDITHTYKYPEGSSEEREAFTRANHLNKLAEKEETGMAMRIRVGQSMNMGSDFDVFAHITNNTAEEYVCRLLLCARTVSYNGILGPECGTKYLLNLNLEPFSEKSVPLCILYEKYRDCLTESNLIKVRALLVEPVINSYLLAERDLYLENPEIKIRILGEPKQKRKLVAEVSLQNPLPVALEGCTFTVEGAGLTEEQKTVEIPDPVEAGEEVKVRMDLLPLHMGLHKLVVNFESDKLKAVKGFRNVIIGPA
The series is described as follows: Transglutaminase assay (dansylcadaverine incorporation into dimethylcasein, DCC-assay). In kind it is biochemical. To be noted: for IC50: recombinant human TG2 10 nM, dansylcadaverine/dimethylcasein, 37° C. Put shortly:
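IC50 derived from fluorescence slope between 20 and 30 min (λex 330 nm, λem 500 nm, 37 °C), expressed relative to a 2% DMSO control. Reaction: 10 nM recombinant human TG2, 4 μM dimethylcasein, 16.7 μM dansylcadaverine, 10 mM CaCl2 and glutathione, pH 8.0.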

What is called Papp is a coefficient for how fast a substance crosses the barrier. Low values mean slow passage, high ones fast passage. One may read the logD as the decadic logarithm of the distribution of all forms, ionised or not, between an organic phase and buffer at a given pH. Higher therefore signals higher lipophilicity. The IC50 is the concentration that gives 50% inhibition. In turn, `COC(=O)/C=C/CC[C@H](NC(=O)c1nonc1N)C(=O)Nc1cccn(CC(=O)NC23CC(C2)C3)c1=O` [III-160, (S,E)-methyl 6-(4-amino-1,2,5-oxadiazole-3-carboxamido)-7-(1-(2-(bicyclo[1.1.1]pentan-1-ylamino)-2-oxoethyl)-2-oxo-1,2-dihydropyridin-3-ylamino)-7-oxohept-2-enoate] had a Papp in series [1] below 1 ×10⁻⁶ cm/s. The logD in series [2] is below 1. Further, in series [3], the IC50 lay in the range of 250 to 1500 nM.
`COC(=O)/C=C/CC[C@H](NC(=O)c1cc2ccc(N(C)C)cc2o1)C(=O)Nc1cccn(CC(=O)NC23CC(C2)C3)c1=O` [III-161, (S,E)-methyl 7-(1-(2-(bicyclo[1.1.1]pentan-1-ylamino)-2-oxoethyl)-2-oxo-1,2-dihydropyridin-3-ylamino)-6-(6-(dimethylamino)benzofuran-2-carboxamido)-7-oxohept-2-enoate] showed an apparent permeability coefficient (Papp) in series [1] below 1 ×10⁻⁶ cm/s. Also, the logD in series [2] lay in the range of 1 to 3. The half-maximal inhibitory concentration (IC50) in series [3] lay in the range of 250 to 1500 nM.
In the same order, the values of `COC(=O)/C=C/CC[C@H](NC(=O)c1cnc(NC(C)=O)s1)C(=O)Nc1cccn(CC(=O)NC23CC(C2)C3)c1=O` [III-162, (S,E)-methyl 6-(2-acetamidothiazole-5-carboxamido)-7-(1-(2-(bicyclo[1.1.1]pentan-1-ylamino)-2-oxoethyl)-2-oxo-1,2-dihydropyridin-3-ylamino)-7-oxohept-2-enoate] are below 1 ×10⁻⁶ cm/s, below 1 and 250 to 1500 nM.
In the same order, the values of `COC(=O)/C=C/CC[C@H](NC(=O)c1c[nH]c(C(N)=O)c1)C(=O)Nc1cccn(CC(=O)NC23CC(C2)C3)c1=O` [III-163, (S,E)-methyl 7-(1-(2-(bicyclo[1.1.1]pentan-1-ylamino)-2-oxoethyl)-2-oxo-1,2-dihydropyridin-3-ylamino)-6-(5-carbamoyl-1H-pyrrole-3-carboxamido)-7-oxohept-2-enoate] are below 1 ×10⁻⁶ cm/s, below 1 and 250 to 1500 nM.
In the same order, the values of `COC(=O)/C=C/CC[C@H](NC(=O)c1coc(S(N)(=O)=O)c1)C(=O)Nc1cccn(CC(=O)NC2C3CC4CC2CC(NC(C)=O)(C4)C3)c1=O` (stereo partly drawn) [III-164, (S,E)-methyl 7-(1-(2-(1-acetylamino-4-aminoadamantane)-2-oxoethyl)-2-oxo-1,2-dihydropyridin-3-ylamino)-7-oxo-6-(5-sulfamoylfuran-3-carboxamido)hept-2-enoate] are below 1 ×10⁻⁶ cm/s, below 1 and 250 to 1500 nM.
As for `COC(=O)/C=C/CC[C@H](NC(=O)c1ccc2occc2c1)C(=O)Nc1cccn(CC(=O)NC2C3CC4CC2CC(NC(C)=O)(C4)C3)c1=O` (stereo partly drawn) [III-165, (S,E)-methyl 6-(benzofuran-5-carboxamido)-7-(1-(2-(1-acetylamino-4-aminoadamantane)-2-oxoethyl)-2-oxo-1,2-dihydropyridin-3-ylamino)-7-oxohept-2-enoate], the apparent permeability (Papp) in series [1] was below 1 ×10⁻⁶ cm/s. In addition, the logD in series [2] was 1 to 3. Moreover, the IC50 in series [3] lay in the range of 25 to 250 nM.
In the same order, the values of `COC(=O)/C=C/CC[C@H](NC(=O)c1ccc2ccoc2c1)C(=O)Nc1cccn(CC(=O)NC2C3CC4CC2CC(C(N)=O)(C4)C3)c1=O` (stereo partly drawn) [III-166, (S,E)-methyl 6-(benzofuran-6-carboxamido)-7-(1-(2-(4-aminoadamantane-1-carboxamide)-2-oxoethyl)-2-oxo-1,2-dihydropyridin-3-ylamino)-7-oxohept-2-enoate] are below 1 ×10⁻⁶ cm/s, 1 to 3 and 25 to 250 nM.
Consider `COC(=O)/C=C/CC[C@H](NC(=O)c1nc(C2(C)CC2)no1)C(=O)Nc1cccn(CC(=O)NC2C3CC4CC2CC(C(N)=O)(C4)C3)c1=O` (stereo partly drawn) [III-167, (S,E)-methyl 7-(1-(2-(4-aminoadamantane-1-carboxamide)-2-oxoethyl)-2-oxo-1,2-dihydropyridin-3-ylamino)-6-(3-(1-methylcyclopropyl)-1,2,4-oxadiazole-5-carboxamido)-7-oxohept-2-enoate], for which the Papp in series [1] was below 1 ×10⁻⁶ cm/s. In addition, the logD in series [2] was below 1. Besides, the IC50 in series [3] fell in the range of 250 to 1500 nM.
In the same order, the values of `COC(=O)/C=C/CC[C@H](NC(=O)c1noc(C)n1)C(=O)Nc1cccn(CC(=O)NC23CC(C2)C3)c1=O` [III-168, (S,E)-methyl 7-(1-(2-(bicyclo[1.1.1]pentan-1-ylamino)-2-oxoethyl)-2-oxo-1,2-dihydropyridin-3-ylamino)-6-(5-methyl-1,2,4-oxadiazole-3-carboxamido)-7-oxohept-2-enoate] are below 1 ×10⁻⁶ cm/s, below 1 and 250 to 1500 nM.
The matching figures for `COC(=O)/C=C/CC[C@H](NC(=O)c1csnn1)C(=O)Nc1cccn(CC(=O)NC23CC(C2)C3)c1=O` [III-169, (S,E)-methyl 7-(1-(2-(bicyclo[1.1.1]pentan-1-ylamino)-2-oxoethyl)-2-oxo-1,2-dihydropyridin-3-ylamino)-7-oxo-6-(1,2,3-thiadiazole-4-carboxamido)hept-2-enoate]: below 1 ×10⁻⁶ cm/s, below 1 and 25 to 250 nM.
The matching figures for `COC(=O)/C=C/CC[C@H](NC(=O)c1ncns1)C(=O)Nc1cccn(CC(=O)NC23CC(C2)C3)c1=O` [III-170, (S,E)-methyl 7-(1-(2-(bicyclo[1.1.1]pentan-1-ylamino)-2-oxoethyl)-2-oxo-1,2-dihydropyridin-3-ylamino)-7-oxo-6-(1,2,4-thiadiazole-5-carboxamido)hept-2-enoate]: below 1 ×10⁻⁶ cm/s, below 1 and 25 to 250 nM.
With `COC(=O)/C=C/CC[C@H](NC(=O)c1nncs1)C(=O)Nc1cccn(CC(=O)NC23CC(C2)C3)c1=O` [III-171, (S,E)-methyl 7-(1-(2-(bicyclo[1.1.1]pentan-1-ylamino)-2-oxoethyl)-2-oxo-1,2-dihydropyridin-3-ylamino)-7-oxo-6-(1,3,4-thiadiazole-2-carboxamido)hept-2-enoate], the Papp in series [1] is below 1 ×10⁻⁶ cm/s. Further, the log distribution coefficient (logD) in series [2] was below 1. Further, the IC50 in series [3] was 25 to 250 nM.
In the same order, the values of `COC(=O)/C=C/CC[C@H](NC(=O)c1snnc1C1CC1)C(=O)Nc1cccn(CC(=O)NC23CC(C2)C3)c1=O` [III-172, (S,E)-methyl 7-(1-(2-(bicyclo[1.1.1]pentan-1-ylamino)-2-oxoethyl)-2-oxo-1,2-dihydropyridin-3-ylamino)-6-(4-cyclopropyl-1,2,3-thiadiazole-5-carboxamido)-7-oxohept-2-enoate] are below 1 ×10⁻⁶ cm/s, below 1 and 25 to 250 nM.
`COC(=O)/C=C/CC[C@H](NC(=O)c1cnsn1)C(=O)Nc1cccn(CC(=O)NC23CC(C2)C3)c1=O` [III-173, (S,E)-methyl 7-(1-(2-(bicyclo[1.1.1]pentan-1-ylamino)-2-oxoethyl)-2-oxo-1,2-dihydropyridin-3-ylamino)-7-oxo-6-(1,2,5-thiadiazole-3-carboxamido)hept-2-enoate] came in with a Papp in series [1] below 1 ×10⁻⁶ cm/s. The compound also showed a logD in series [2] below 1. Besides, the IC50 in series [3] was 25 to 250 nM.
The matching figures for `COC(=O)/C=C/CC[C@H](NC(=O)c1snnc1C=O)C(=O)Nc1cccn(CC(=O)NC2(C(=O)O)C3CC4CC2CC(C(F)(F)F)(C4)C3)c1=O` (stereo partly drawn) [III-174, (S,E)-methyl 6-(4-formyl-1,2,3-thiadiazole-5-carboxamido)-7-(1-(2-(2-carboxy-2-amino-5-(trifluoromethyl)adamantane)-2-oxoethyl)-2-oxo-1,2-dihydropyridin-3-ylamino)-7-oxohept-2-enoate]: below 1 ×10⁻⁶ cm/s, 1 to 3 and 250 to 1500 nM.
As to `COC(=O)/C=C/CC[C@H](NC(=O)c1snnc1CO)C(=O)Nc1cccn(CC(=O)NC2C3CC4CC(C3)CC2C4)c1=O` (stereo partly drawn) [III-175, (S,E)-methyl 6-(4-(hydroxymethyl)-1,2,3-thiadiazole-5-carboxamido)-7-(1-(2-(2-adamantylamino)-2-oxoethyl)-2-oxo-1,2-dihydropyridin-3-ylamino)-7-oxohept-2-enoate], the Papp in series [1] is below 1 ×10⁻⁶ cm/s. Further, the logD in series [2] lay in the range of 1 to 3. Further, in series [3], the IC50 is 250 to 1500 nM.
In series [1], `COC(=O)/C=C/CC[C@H](NC(=O)c1cccnc1)C(=O)Nc1cccn(CC(=O)NCCc2ccccc2)c1=O` [Ref. 5, reference compound] displayed a Papp below 1 ×10⁻⁶ cm/s. Also, the pH-dependent lipophilicity (logD) in series [2] was in the range of 1 to 3. Further, in series [3] (IC50 ratio vs III-83, Table 1), the “times less potent in comparison to compound III-83” value is listed as “more than 25 times”. In series [3], the IC50 was in the range of 250 to 1500 nM.
